Assay results from ChEMBL document CHEMBL5352508, “Discovery and Structure-Based Design of Inhibitors of the WD Repeat-Containing Protein 5 (WDR5)-MYC Interaction” (J Med Chem, 2023).
Active and inactive are the calls of the source. The rule behind the calls is not given here.

How the values were obtained:
WDR5-MYC = WDR5-MYC (Homo sapiens, UniProt P61964); experiment: Inhibition of N-terminal his-tagged WDR5 (1 to 334 residues) (unknown origin)/Biotin tagged Myc (256-268 residues) (unknown origin) interaction measured after 1 hrs by HTRF assay; format: protein assay
Ramos = experiment: Antiproliferative activity against human Ramos cells assessed as cell growth inhibition measured after 72 hrs by CellTier-Glo assay; format: functional
NCI-H1650 = experiment: Antiproliferative activity against human NCI-H1650 cells assessed as cell growth inhibition measured after 72 hrs by CellTier-Glo assay; format: functional
HL-60 [1] = experiment: Downregulation of RPL35 gene expression in human HL-60 cells at 10 uM measured after 24 hrs by RT-qPCR assay; format: functional, cell-based
HL-60 [2] = experiment: Effect on MCM4 mRNA expression in human HL-60 cells measured after 24 hrs by RT-qPCR assay; format: functional, cell-based
NB-4 = experiment: Antiproliferative activity against human NB4 cells assessed as cell growth inhibition measured after 72 hrs by CellTier-Glo assay; format: functional
NCI-H520 = experiment: Antiproliferative activity against human NCI-H520 cells assessed as cell growth inhibition measured after 72 hrs by CellTier-Glo assay; format: functional
HL-60 [3] = experiment: Effect on MCM10 mRNA expression in human HL-60 cells measured after 24 hrs by RT-qPCR assay; format: functional, cell-based
HL-60 [4] = experiment: Downregulation of RPL17 gene expression in human HL-60 cells at 10 uM measured after 24 hrs by RT-qPCR assay; format: functional, cell-based
[5] = biological target: Histone-lysine N-methyltransferase 2A/WDR5 (Homo sapiens) (UniProt P61964+Q03164); experiment: Inhibition of WDR5 (unknown origin)/MLL (unknown origin) interaction by NanoBiT assay; format: protein assay
HL-60 [6] = experiment: Downregulation of RPL23 gene expression in human HL-60 cells at 10 uM measured after 24 hrs by RT-qPCR assay; format: functional, cell-based
HL-60 [7] = experiment: Downregulation of RPL37A gene expression in human HL-60 cells at 10 uM measured after 24 hrs by RT-qPCR assay; format: functional, cell-based
HL-60 [8] = experiment: Effect on Cdc20 mRNA expression in human HL-60 cells measured after 24 hrs by RT-qPCR assay; format: functional, cell-based
HL-60 [9] = experiment: Antiproliferative activity against human HL-60 cells assessed as cell growth inhibition measured after 72 hrs by CellTier-Glo assay; format: functional
SHP77 = experiment: Antiproliferative activity against human SHP77 cells assessed as cell growth inhibition measured after 72 hrs by CellTier-Glo assay; format: functional
Daudi = experiment: Antiproliferative activity against human Daudi cells assessed as cell growth inhibition measured after 72 hrs by CellTier-Glo assay; format: functional
COR-L279 = experiment: Antiproliferative activity against human COR-L279 cells assessed as cell growth inhibition measured after 72 hrs by CellTier-Glo assay; format: functional
HL-60 [10] = experiment: Effect on AURKB mRNA expression in human HL-60 cells measured after 24 hrs by RT-qPCR assay; format: functional, cell-based
[11] = Microsomal stability in mouse liver microsome assessed as intrinsic clearance; format: ADME; settings: liver microsomes, read-out: CLH
[12] = Apparent permeability of the compound in dog MDCKII-LE cells measured upto 1.5 hrs; format: ADME, cell-based, Canis lupus familiaris; settings: MDCK

For `Cc1cc(=O)c(C(=O)NCc2c(F)cc(N3CC[C@H](F)C3)cc2F)nn1-c1cccc(C(=O)O)c1`, the IC50 (WDR5-MYC) was 0.64 µM.
In the case of `Cc1cc(=O)c(C(=O)N(C)Cc2c(F)cc(C3CCCOC3)cc2F)nn1-c1ccccc1` (stereo not drawn), the GI50 (Ramos) is reported as over 50 µM, the GI50 (NCI-H1650) is reported as over 50 µM and the Activity (HL-60 [1]) is reported as “inactive”. For the same molecule, the Activity (HL-60 [2]) was “inactive”, the GI50 (NB-4) was over 50 µM and the GI50 (NCI-H520) was over 50 µM. For the same molecule, the Activity (HL-60 [3]) was “inactive”, the Activity (HL-60 [4]) was “inactive” and the inhibition [5] was “inactive”. The Activity (HL-60 [6]) was “inactive”, the Activity (HL-60 [7]) was “inactive” and the Activity (HL-60 [8]) was “inactive”. It also gave a GI50 (HL-60 [9]) of over 50 µM, an IC50 (WDR5-MYC) of 43.4 µM and a GI50 (SHP77) of over 50 µM. The GI50 (Daudi) was over 50 µM, the GI50 (COR-L279) was over 50 µM and the Activity (HL-60 [10]) was “inactive”.
`Cc1cc(=O)c(C(=O)NCc2c(F)cc(N3CC[C@@H](F)C3)cc2F)nn1-c1cccc(CC(=O)O)c1` showed an IC50 (WDR5-MYC) of 1.43 µM.
Molecule `Cc1cc(=O)c(C(=O)NCc2c(F)cc(N3CCCC(C)(C)C3)cc2F)nn1-c1ccccc1` has an IC50 (WDR5-MYC) of 2.46 µM.
Molecule `Cc1cc(=O)c(C(=O)NCc2c(F)cc(N3CCOCC3)cc2F)nn1-c1ccccc1` has an IC50 (WDR5-MYC) of 3.24 µM.
`CC(=O)c1cccc(-c2cc(F)c(CNC(=O)c3nn(-c4ccccc4)c(C)cc3=O)c(F)c2)c1` showed an IC50 (WDR5-MYC) of 8.13 µM.
Work on `Cc1cc(=O)c(C(=O)NCc2c(F)cc(N3CC[C@@H](F)C3)cc2F)nn1-c1ccccc1` yielded an IC50 (WDR5-MYC) of 0.78 µM.
Molecule `Cc1cc(=O)c(C(=O)NCc2c(F)cc(N3CC[C@@H](F)C3)cc2F)nn1-c1cccc(C(=O)O)c1` has an IC50 (WDR5-MYC) of 1.23 µM.
Work on `Cc1cc(=O)c(C(=O)NCc2c(F)cc(-c3cccc(S(=O)(=O)F)c3)cc2F)nn1-c1cccc(C(=O)O)c1` yielded an IC50 (WDR5-MYC) of 0.19 µM.
With `CCCC[C@@H](Cc1c(F)cc(-c2cccc(S(=O)(=O)F)c2)cc1F)C(=O)Nc1nnn[nH]1` the microsomal CLint [11] was 150 µL/min/mg and the Papp at 1.5 h [12] was 0.96 ×10⁻⁶ cm/s.
`Cc1cc(=O)c(C(=O)NCc2c(F)cc(N3CC[C@H](F)C3)cc2F)nn1-c1ccccc1` showed an IC50 (WDR5-MYC) of 1.2 µM.
`Cc1cc(=O)c(C(=O)NCc2c(F)cc(-c3cccc(CO)c3)cc2F)nn1-c1ccccc1` showed an IC50 (WDR5-MYC) of 5.69 µM.
`Cc1cc(=O)c(C(=O)NCc2c(F)cc(C3CCCOC3)cc2F)nn1-c1ccccc1` (stereo not drawn) gave an IC50 (WDR5-MYC) of 3.83 µM.
Molecule `Cc1cc(=O)c(C(=O)NCc2c(F)cc(N3CC[C@H](F)C3)cc2F)nn1-c1cccc(C(N)=O)c1` has an IC50 (WDR5-MYC) of 0.95 µM.
`Cc1cc(=O)c(C(=O)NCc2c(F)cc(-c3cccc(C(C)O)c3)cc2F)nn1-c1ccccc1` (stereo not drawn) gave an IC50 (WDR5-MYC) of 5.51 µM.
